For data set [1], the system named is Drosophila melanogaster. Briefly: survival of Drosophila under Paraquat-induced oxidative stress. Particulars: for effect on Paraquat-induced oxidative stress (in words): single nutrient, pure form. It is filed as in vivo. As to the method:
The effect of Agaricus Blazei without enrichment, with Vitamin D2 enrichment, pure Vitamin D2 and control (vehicle for the delivery) on the survival rate of Drosophila melanogaster under Paraquat-induced oxidative stress condition was tested. The study focused on the control of Paraquat induced oxidative stress/biologic death. Paraquat is a very potent oxidative stress inducing chemical and causes death in animals and plants by the toxicity of released free radicals. Paraquat (10 mM concentration) (Sigma Aldrich) was used to chemically induce oxidative stress. Paraquat is the trade name for N,N′-dimethyl-4,4′-bipyridinium dichloride, a widely used herbicide. Paraquat, a viologen, is quick-acting and non-selective, killing green plant tissue on contact. It is also toxic to humans when swallowed. This is the most standard chemical used in experimental induction of oxidative stress using the Drosophila model system. It catalyzes the formation of reactive oxygen species (ROS). Paraquat will undergo redox cycling in vivo, gets reduced by an electron donor such NADPH, before being oxidized by an electron receptor such as dioxygen to produce superoxide, a major ROS.
The following materials and methods were utilized. Vials containing 10 mM Paraquat (from Sigma Aldrich) in 5 ml of 1.2% Low melting point Agarose medium were prepared. A strip of half moist filter paper was inserted in the medium (with the wet end in). Yeast paste containing 1% concentration (w/w) of the various test materials (see above) mixed to homogeneity was prepared. Yeast paste without drug was used as control. Uniform aliquot (˜300 mg) of yeast paste with or without the test material) was applied to vials in such a way that yeast paste was on the glass surface and covered the dry end (top) of the filter paper strip. Freshly enclosed wild type isogenized Canton-S males and females were collected and starved on 1% agar medium for 5-6 hours. […] Flies were transferred once in 2 days and the number of flies surviving at each transfer was recorded.

Data set [2] relates to Alzheimer's disease mutant fruit fly. Kind of data set: survival and life span of Alzheimer's disease (APP over-expression) Drosophila model. It is filed as in vivo. Particulars: APP induced in central brain by GAL4 driver. The text has this: Type of Model (with specific Drosophila model of neurodegeneration, with references). The targeted over/ectopic expression of APP in the brain using a UAS promoter driven APP transgene, induced by a specific GAL4 trans-driver in the brain of a Drosophila model system, was used for this Example. Below is a reference for such over-expression of APP in the Drosophila model system and the combination gives a fully penetrant AD with limited life-span.
β-Amyloid peptides and amyloid precursor protein (APP) play a deterministic role in Alzheimer's disease (AD). In Drosophila, the targeted expression of the key genes of AD, APP, causes generation of β-amyloid plaques and age-dependent neurodegeneration as well as progression to semi lethality, a shortened life span; genetic manipulations or pharmacological treatments with secretase inhibitors influenced the activity of the APP-processing proteases and modulated the severity of the phenotypes (Greeve I., et al., J. Neuroscience 24, 3899-3906 (2004)). The AD strain lives only for a few days after their eclosion (birth) as opposed to 65 days or more for wild type normal strains.
We determined the extension of life span in the mutant strain for each test compound. We used a specific GAL4 driver that induces the APP gene in the central brain area at high levels (see above) and results in a fully penetrant lethality within a 2-3 weeks period.

For data set [3] the following is noted: after mushroom consumption, healthy men; cited from earlier work.
Data set [4] deals with alpha-synuclein. Kind of data set: alpha-synuclein ELISA of plasma, cortex and midbrain of SNCA transgenic mice. It is filed as in vivo, mouse. As to conditions: three months of diet; untreated controls 2.52±0.28. The text has this:
Matched cohorts of an SNCA transgenic mouse model of PD were used to measure the therapeutic efficacy of the medical food formulation ErgoD2TM, created from a single mushroom species, Pleurotus […]. The outcomes measurements assessed improvement in grip strength and alpha-synuclein levels in the cortex and/or midbrain of the PD animals. […] No detectable motor behavior impairments, autonomic abnormalities, olfactory dysfunction, dopaminergic deficits, Lewy body inclusions or neurodegeneration are associated with α-synuclein expression in these mice (Kuo et al., 2010). As outlined in the results section, the mice were grouped at ten (10) mice/cohort and were fed a purina diet for three months with and without addition of the medical food ErgoD2TM, provided by Entia Biosciences, Inc. Three (3) test diets were created with the assistance of Carrie Schultz, Ph.D., Land O'Lakes Purina Feed, and each diet was color-coded. […] Alpha-synuclein was measured using an ELISA kit (Invitrogen, Hu α-Synuclein ELISA Kit) according to the manufacturer's protocol. The α-synuclein concentration of each 1 mL homogenized midbrain lysate was calculated by interpolating absorbance readings to a standard curve and adjusting for necessary dilution factors and protein equivalencies. The mean α-synuclein concentration of the samples in each treatment group was then calculated. […]

For data set [5], the system named is SNCA transgenic mouse model of PD. Kind of data set: grip strength task in SNCA transgenic mouse model of PD. It is filed as in vivo. Particulars: PD model mice, three months of treatment. An excerpt: Matched cohorts of an SNCA transgenic mouse model of PD were used to measure the therapeutic efficacy of the medical food formulation ErgoD2TM, created from a single mushroom species, Pleurotus […]. The outcomes measurements assessed improvement in grip strength and alpha-synuclein levels in the cortex and/or midbrain of the PD animals. […] No detectable motor behavior impairments, autonomic abnormalities, olfactory dysfunction, dopaminergic deficits, Lewy body inclusions or neurodegeneration are associated with α-synuclein expression in these mice (Kuo et al., 2010). As outlined in the results section, the mice were grouped at ten (10) mice/cohort and were fed a purina diet for three months with and without addition of the medical food ErgoD2TM, provided by Entia Biosciences, Inc. Three (3) test diets were created with the assistance of Carrie Schultz, Ph.D., Land O'Lakes Purina Feed, and each diet was color-coded. The control/placebo mouse diet consisted of Purina Modified LabDiet® (RMH 3000). The two treatment diets were RMH 3000 supplemented with (i) synthetic N-Acetyl Cysteine (NAC) @ 0.015% of total weight and (ii) the medical food ErgoD2TM @ 0.5% of total weight. […] The mouse is then pulled back gently until the grip is released and peak force at the point of release is recorded in Kg. […]

In data set [6] the test system is glutathione (GSH). Briefly: kinetic assay of plasma glutathione (GSH) in Pac-Tg (SNCA) transgenic mice. It is filed as in vivo. As to conditions: trend only: p=0.10 (Pleurotus), p=0.09 (NAC). As to the method: Our Pac-Tg (SNCA) mice transgenic mice express the human gene for human alpha-synuclein and these were assigned one of four treatment paradigms (including no treatment). Plasma samples taken from these mice were evaluated in duplicate using a kinetic assay protocol for the presence of glutathione (GSH), a measure of resilience to oxidative stress. The tested subject groups were treated with one of the following: Blazei Mushroom, Pleurotus mushroom, or n-acetyl cysteine (NAC). The results for these groups were compared to those for both untreated and wild-type controls.
Data. A serial dilution of provided standard solution allowed for the creation of a standard curve following kinetic absorbance readings (FIGS. 6A and B). The change in absorbance (Vmax) over five minutes (six absorbance readings) was calculated for each standard and plotted against each standard's known GSH concentration. […] The change in absorbance for the second standard was calculated using only the first two kinetic readings (t=0, t=1) for the same reason. […] A linear regression of the resulting standard curve allowed for extrapolation of GSH levels in the assayed plasma samples based on their changes in absorbance (Vmax) over six minute-reads.
Following tabulation of the data, results were omitted if they were not reproducible in duplicate using all six kinetic readings and within 30% precision. […]

Data set [7] concerns IL-6. Briefly: IL-6 ELISA of whole blood cell lysate from alpha synuclein transgenic mice. It is filed as in vivo. Particulars: one remaining sample per treatment group. As to the method: We pursued this effect in our mice since the role of IL-6 and other neuroimmune factors need to be elucidated on PD. Alpha synuclein transgenic mice expressing the human gene for alpha-synuclein were treated with the medical food ErgoD2™ (Pleurotus; Table 3) or N-Acetylcysteine (NAC), and whole blood cell lysate samples from these mice were evaluated in triplicate using an ELISA for the presence of IL-6. The results were compared to those from untreated and wild-type controls.
A serial dilution of provided standard solution allowed for the creation of a standard curve following absorbency reading. An exponential regression of this curve was used to extrapolate the concentration of IL-6 in the lysate samples based on their final absorbency values and accounting for dilution factors of the samples.
Lysate samples taken from subjects #222 and #321 were clotted. A small amount of each was used during assay, but their relatively high corresponding dilution factors call into question the findings based on these samples.
(ELISA stands for enzyme-linked immunosorbent assay.)

We go through four compounds from patent US20150157648A1, “NUTRITIONAL APPROACH TO IMPROVING ATHLETIC PERFORMANCE AND REDUCING INJURY WITH L-ERGOTHIONEINE AND/OR VITAMIN D2” (priority 2012, published 2015).

Consider `C=C1CC[C@H](O)C/C1=C/C=C1\CCC[C@]2(C)[C@@H]([C@H](C)/C=C/[C@H](C)C(C)C)CC[C@@H]12` [pure Vitamin D2, Ergocalciferol], for which the “survivability under Paraquat-induced oxidative stress” value in data set [1] (10 mM Paraquat, 1% (w/w) test material in yeast paste, 10 days, 25 degrees C) came to 13%+/−3%. For the same compound, in data set [1], the “effect on Paraquat-induced oxidative stress (in words)” value is recorded as “no beneficial effect”. Besides, the “survival rate of AD flies versus control” value in data set [2] is recorded as “no such effect”.
For `C[N+](C)(C)[C@@H](Cc1c[nH]c(=S)[nH]1)C(=O)[O-]` [ET, L-Ergothioneine], the “time to peak of ET in red blood cells (RBC)” value in data set [3] is 2 h.
Turning to `CC(=O)N[C@@H](CS)C(=O)O` [NAC, N-Acetylcysteine], in data set [4], the “mean midbrain α-synuclein concentration” value stood at 2.17 ± 0.31 µg/mL. For the same compound, the “grip testing (in words)” value in data set [5] is listed as “statistically significant improvement”. Moreover, the “plasma glutathione concentration vs. untreated mice” value in data set [6] is reported as “higher concentrations of glutathione”. Moreover, in data set [7], the “IL-6 more than the untreated group” value is listed as 8.7 pg/mL and the “IL-6 more than the wild-type group” value came out at 9.5 pg/mL.
As to `C=C1CC[C@H](O)C/C1=C/C=C1\CCC[C@]2(C)[C@@H]([C@H](C)CCCC(C)C)CC[C@@H]12` [Vitamin D3, cholecalciferol], the “effect on Paraquat-induced oxidative stress (in words)” value in data set [1] was “no beneficial effect”. Moreover, the “survival rate of AD flies versus control” value in data set [2] was “no such effect”.
